Laboratory results: ChEMBL document CHEMBL2407067, “Pyridone-conjugated monobactam antibiotics with gram-negative activity” (J Med Chem, 2013)
In brackets after ≈: the same amount, converted by molar mass.

Experiments:
[1] = test system: Klebsiella pneumoniae; assay: Antibacterial activity against Klebsiella pneumoniae expressing defined beta-lactamase by broth microdilution method; assay type: functional
[2] = test system: Escherichia coli; assay: Antibacterial activity against Escherichia coli expressing ESBL by broth microdilution method; assay type: functional
[3] = test system: Escherichia coli; assay: Antibacterial activity against Escherichia coli expressing CTX-M by broth microdilution method; assay type: functional
[4] = test system: Acinetobacter baumannii; assay: Antibacterial activity against Acinetobacter baumannii AB-3167 by broth microdilution method; assay type: functional
[5] = test system: Pseudomonas aeruginosa; assay: Antibacterial activity against Pseudomonas aeruginosa from cystic fibrosis patients by broth microdilution method; assay type: functional
[6] = test system: Klebsiella pneumoniae; assay: Antibacterial activity against Klebsiella pneumoniae expressing ESBL by broth microdilution method; assay type: functional
[7] = test system: Klebsiella pneumoniae; assay: Antibacterial activity against Klebsiella pneumoniae 1487-07 by broth microdilution method; assay type: functional
[8] = test system: Pseudomonas aeruginosa; assay: Antibacterial activity against Pseudomonas aeruginosa expressing metallo-beta-lactamase by broth microdilution method; assay type: functional
[9] = test system: Escherichia coli; assay: Antibacterial activity against Escherichia coli expressing defined beta-lactamase by broth microdilution method; assay type: functional
[10] = test system: Klebsiella pneumoniae; assay: Antibacterial activity against Klebsiella pneumoniae expressing KPC by broth microdilution method; assay type: functional
[11] = test system: Pseudomonas aeruginosa; assay: microbe, parasite or virus in culture; conditions: 1091-05
Description: Antibacterial activity against Pseudomonas aeruginosa 1091-05 by broth microdilution method

[12] = test system: Acinetobacter sp.; assay: Antibacterial activity against Acinetobacter spp. by broth microdilution method; assay type: functional
[13] = test system: Klebsiella pneumoniae; assay: Antibacterial activity against Klebsiella pneumoniae 1000-02 by broth microdilution method; assay type: functional
[14] = test system: Pseudomonas aeruginosa; assay: Antibacterial activity against Pseudomonas aeruginosa 1042-06 by broth microdilution method; assay type: functional

| SMILES | MIC [4] | MIC [7] | MIC [11] | MIC [13] | MIC [14] | further results |
| --- | --- | --- | --- | --- | --- | --- |
| CO/N=C(\C(=O)N[C@@H]1C(=O)N2C(C(=O)[O-])=C(C[N+]3(C)CCCC3)CS[C@H]12)c1csc(N)n1 | 2 µg/mL (≈ 4.16 µM) | > 64 µg/mL | 2 µg/mL (≈ 4.16 µM) |  |  | MIC50 [1]: 4 µg/mL (≈ 8.32 µM); MIC90 [1]: > 64 µg/mL; MIC50 [2]: 64 µg/mL (≈ 133 µM); MIC90 [2]: > 64 µg/mL; MIC50 [3]: 64 µg/mL (≈ 133 µM); MIC90 [3]: > 64 µg/mL; MIC50 [5]: 8 µg/mL (≈ 16.6 µM); MIC90 [5]: > 64 µg/mL; MIC50 [6]: 8 µg/mL (≈ 16.6 µM); MIC90 [6]: > 64 µg/mL; MIC50 [8]: > 64 µg/mL; MIC90 [8]: > 64 µg/mL; MIC50 [9]: 0.25 µg/mL (≈ 0.52 µM); MIC90 [9]: 4 µg/mL (≈ 8.32 µM); MIC50 [10]: > 64 µg/mL; MIC90 [10]: > 64 µg/mL; MIC50 [12]: 8 µg/mL (≈ 16.6 µM); MIC90 [12]: > 64 µg/mL |
| CC(C)(O/N=C(\C(=O)N[C@@H]1C(=O)N(S(=O)(=O)O)[C@@H]1CNC(=O)c1cccc(O)c1O)c1csc(N)n1)C(=O)O | 16 µg/mL (≈ 27.3 µM) | 64 µg/mL (≈ 109 µM) | 16 µg/mL (≈ 27.3 µM) | 64 µg/mL (≈ 109 µM) | 32 µg/mL (≈ 54.6 µM) |  |
| CC(C)(O/N=C(\C(=O)N[C@@H]1C(=O)N(S(=O)(=O)O)[C@@H]1CNC(=O)c1[nH]ccc(=O)c1O)c1csc(N)n1)C(=O)O | 32 µg/mL (≈ 54.5 µM) | 64 µg/mL (≈ 109 µM) | 32 µg/mL (≈ 54.5 µM) | 32 µg/mL (≈ 54.5 µM) | > 64 µg/mL |  |
| NCCO/N=C(\C(=O)N[C@@H]1C(=O)N(S(=O)(=O)O)[C@@H]1CNC(=O)NCc1cc(=O)c(O)cn1O)c1csc(N)n1 | 4 µg/mL (≈ 6.78 µM) | > 64 µg/mL | 4 µg/mL (≈ 6.78 µM) | > 64 µg/mL | > 64 µg/mL |  |
| Cn1cc(O)c(=O)cc1C(=O)NC[C@@H]1[C@H](NC(=O)/C(=N\OC(C)(C)C(=O)O)c2csc(N)n2)C(=O)N1S(=O)(=O)O | 4 µg/mL (≈ 6.65 µM) | 4 µg/mL (≈ 6.65 µM) | 4 µg/mL (≈ 6.65 µM) |  | 4 µg/mL (≈ 6.65 µM) |  |
| CNn1cc(O)c(=O)cc1C(=O)NC[C@@H]1[C@H](NC(=O)/C(=N\OC(C)(C)C(=O)O)c2csc(N)n2)C(=O)N1S(=O)(=O)O | 2 µg/mL (≈ 3.24 µM) | 8 µg/mL (≈ 13 µM) | 2 µg/mL (≈ 3.24 µM) | 0.5 µg/mL (≈ 0.811 µM) | 8 µg/mL (≈ 13 µM) |  |
| CC(C)(O/N=C(\C(=O)N[C@@H]1C(=O)N(S(=O)(=O)O)[C@@H]1CNC(=O)c1cc(=O)c(O)co1)c1csc(N)n1)C(=O)O | 8 µg/mL (≈ 13.6 µM) | 64 µg/mL (≈ 109 µM) | 8 µg/mL (≈ 13.6 µM) | 32 µg/mL (≈ 54.4 µM) | 64 µg/mL (≈ 109 µM) |  |

The next compounds have a lower MIC [11] than those just listed; values first:

| MIC [4] | MIC [7] | MIC [11] | MIC [13] | MIC [14] | SMILES | further results |
| --- | --- | --- | --- | --- | --- | --- |
| 1 µg/mL (≈ 1.62 µM) | 8 µg/mL (≈ 13 µM) | 1 µg/mL (≈ 1.62 µM) | 1 µg/mL (≈ 1.62 µM) | 4 µg/mL (≈ 6.48 µM) | COn1cc(O)c(=O)cc1C(=O)NC[C@@H]1[C@H](NC(=O)/C(=N\OC(C)(C)C(=O)O)c2csc(N)n2)C(=O)N1S(=O)(=O)O |  |
| 1 µg/mL (≈ 1.55 µM) | 4 µg/mL (≈ 6.2 µM) | 1 µg/mL (≈ 1.55 µM) | 0.25 µg/mL (≈ 0.387 µM) | 2 µg/mL (≈ 3.1 µM) | CC(C)(O/N=C(\C(=O)N[C@@H]1C(=O)N(S(=O)(=O)O)[C@@H]1CNC(=O)c1cc(=O)c(O)cn1CC(=O)O)c1csc(N)n1)C(=O)O |  |
|  | 4 µg/mL (≈ 5.95 µM) | 1 µg/mL (≈ 1.49 µM) |  | 8 µg/mL (≈ 11.9 µM) | Nc1nc(/C(=N/OC2(C(=O)O)CCCCC2)C(=O)N[C@@H]2C(=O)N(S(=O)(=O)O)[C@@H]2CNC(=O)NCc2cc(=O)c(O)cn2O)cs1 |  |
| 0.5 µg/mL (≈ 0.79 µM) | > 64 µg/mL | 0.5 µg/mL (≈ 0.79 µM) | 32 µg/mL (≈ 50.6 µM) | 8 µg/mL (≈ 12.6 µM) | Nc1nc(/C(=N/OCCCC(=O)O)C(=O)N[C@@H]2C(=O)N(S(=O)(=O)O)[C@@H]2CNC(=O)NCc2cc(=O)c(O)cn2O)cs1 |  |
| 0.125 µg/mL (≈ 0.19 µM) | 0.5 µg/mL (≈ 0.759 µM) | 0.25 µg/mL (≈ 0.38 µM) | 0.25 µg/mL (≈ 0.38 µM) | 1 µg/mL (≈ 1.52 µM) | Nc1nc(/C(=N/OC2(C(=O)O)CCCC2)C(=O)N[C@@H]2C(=O)N(S(=O)(=O)O)[C@@H]2CNC(=O)NCc2cc(=O)c(O)cn2O)cs1 |  |
| 0.125 µg/mL (≈ 0.213 µM) |  | 0.125 µg/mL (≈ 0.213 µM) | 0.5 µg/mL (≈ 0.851 µM) | 0.5 µg/mL (≈ 0.851 µM) | CC(C)(O/N=C(\C(=O)N[C@@H]1C(=O)N(S(=O)(=O)O)[C@@H]1CNC(=O)c1cc(=O)c(O)c[nH]1)c1csc(N)n1)C(=O)O |  |
